Measurements taken from paper PMC10571957, “αV-Integrin-Dependent Inhibition of Glioblastoma Cell Migration, Invasion and Vasculogenic Mimicry by the uPAcyclin Decapeptide” (Cancers, 2023).

Experiments:
U138-MG cells = assay: Cell viability/proliferation (Trypan blue), U138-MG; format: cell-based, human; details: 1 nM or 100 nM, 72–96 h
Procedure: Cell viability was tested in DMEM/10% FBS, in the presence of 1 nM or 100 nM uPAcyclin, either by Trypan blue exclusion or by thiazolyl blue tetrazolium bromide (MTT) assays, as specified in the figure legends. For the Trypan blue assay, 4 × 10^4 U87-MG, U251-MG, U138-MG, and C6 cells/sample were grown in 12-well plates, and followed for 24, 48 and 72 h. As a negative control, the cells were grown in a serum-free medium. Then, the cells were detached, stained with a 0.2% (w/v) Trypan blue solution, counted using a Burker chamber (T0 = 100%), and reported as number of viable cells/total.

[1] = system: cancer-associated fibroblasts (CAFs) from breast cancer patients; details: ref [30]; cited from earlier work
Description: Thus, in the present work, we investigated the effects of the anti-migratory uPAcyclin decapeptide, binding to the αV integrin subunit. This cyclic decapeptide is derived from a non-catalytic region of the human urokinase (uPA) plasminogen activator. The growth factor domain (GFD, residues 1–49) and the connecting peptide region (CP, residues 132–158) confer to the full uPA a clearcut motogen activity. While the GFD binds to the urokinase receptor (uPAR), the CP region binds to the αV integrin subunit.

C6 cells = assay: Wound healing assay, C6; format: cell-based, rat
Procedure: The wound healing assay or scratch test was performed as previously reported. Briefly, 6 × 10^3 U87-MG cells were seeded in multiwell-12 plates containing culture inserts for live cell analysis (Ibidi, Gmbh, Martinsried, Germany) and grown to confluence in DMEM/10% FBS for 24 h. After removing the inserts, the cells were pre-treated for 40 min at 37 °C with uPAcyclin or diluents at the indicated concentrations, and then incubated in DMEM/3% FBS for 24 h. The images were taken using the Inverted Microscope Leica DMI6000 DFC 402 (Leica Microsystems, Milan, Italy). A total of 10 × 10^4 C6 cells were grown to confluence in 12-well plates, in the presence of DMEM/10% FBS. […] To quantitate cell migration, a rectangle covering the wound edges is drawn on the T0 image and is further applied to the single photograms of each sample. The average margin distance is measured at three points and the results are expressed as percentage wound width of the T0 distance, taken as 100%.
Figure 5 Wound healing assay of U87-MG and C6 cells, in the presence of uPAcyclin. […] (C) For both U87-MG and C6, the wound width at time 0 is taken as 100% and the wound width at T24 or T16 is calculated as relative to that (* p-value < 0.05; ** p-value < 0.005; *** p-value < 0.001).

[2] = system: HT1080 fibrosarcoma cells; details: cited from earlier work
Description: Thus, in the present work, we investigated the effects of the anti-migratory uPAcyclin decapeptide, binding to the αV integrin subunit. This cyclic decapeptide is derived from a non-catalytic region of the human urokinase (uPA) plasminogen activator. The growth factor domain (GFD, residues 1-49) and the connecting peptide region (CP, residues 132-158) confer to the full uPA a clearcut motogen activity. While the GFD binds to the urokinase receptor (uPAR), the CP region binds to the αV integrin subunit. […] The primary sequence of this cyclic peptide, derived from the connecting peptide region (CP) of the serin protease urokinase (uPA), is reported in Figure 1A. As assessed by a previous conformational analysis of uPAcyclin performed in water solution, about half of the peptide molecules ...

Ac-K^1P[ESPPEELK^10]-NH2 (sidechain bridge or staple) [uPAcyclin]
proliferation/viability (U138-MG cells): unaffected by uPAcyclin, regardless of the concentration employed
pro-invasive ability of CAFs [1]: inhibited the pro-invasive ability of cancer-associated fibroblasts
wound closure, in words (C6 cells; 10 pM or 100 nM, C6, 16 h): dose-dependent inhibition of wound closure
reduction of wound healing rate closure (C6 cells; C6, abstract): 50%
lung metastases ([2]; mice injected with HT1080 fibrosarcoma cells, ref [29]): prevent lung metastases
metastatic lung spreading ([2]; nude mice, ref [25]): markedly inhibits metastatic lung spreading in nude mice
